The NIST ThermoML archive (doi:10.1007/s10765-011-0999-6)

Conditions: Gas, Capillary tube (Ostwald / Ubbelohde) method

[HH] [hydrogen]
Conditions | viscosity [mPa·s]
294.1 K, 34430 kPa | 0.00964
294.52 K, 4680 kPa | 0.00901
294.91 K, 10160 kPa | 0.00911
295 K, 81640 kPa | 0.01139
295.01 K, 52730 kPa | 0.01021
295.02 K, 99320 kPa | 0.01196
333.28 K, 4940 kPa | 0.00983
333.3 K, 48480 kPa | 0.01055
333.31 K, 69110 kPa | 0.01122
333.31 K, 94920 kPa | 0.01217
333.32 K, 9480 kPa | 0.0099
400.1 K, 28190 kPa | 0.01115
400.11 K, 4830 kPa | 0.01109
400.11 K, 9190 kPa | 0.01127
400.11 K, 49790 kPa | 0.01163
400.12 K, 71210 kPa | 0.01217

N#N [nitrogen]
Conditions | viscosity [mPa·s]
297.22 K, 31330 kPa | 0.02799
297.23 K, 40300 kPa | 0.03044
297.24 K, 50620 kPa | 0.03457
297.25 K, 24520 kPa | 0.02464
297.25 K, 85020 kPa | 0.0474
297.26 K, 70280 kPa | 0.04283
297.3 K, 570 kPa | 0.01774
297.32 K, 2900 kPa | 0.01836
297.32 K, 4960 kPa | 0.01892
297.33 K, 9020 kPa | 0.0199
297.45 K, 60740 kPa | 0.03906
297.46 K, 95040 kPa | 0.05291
333.14 K, 10530 kPa | 0.02163
333.16 K, 15340 kPa | 0.0222
333.22 K, 24490 kPa | 0.02538
333.3 K, 34970 kPa | 0.02945
333.42 K, 48850 kPa | 0.03239
333.51 K, 74270 kPa | 0.03968
333.59 K, 95150 kPa | 0.04811
400.07 K, 7230 kPa | 0.02297
400.07 K, 10740 kPa | 0.02334
400.07 K, 15630 kPa | 0.02427
400.07 K, 25910 kPa | 0.02639
400.07 K, 35280 kPa | 0.0284
400.07 K, 47240 kPa | 0.03189
400.07 K, 65020 kPa | 0.03573
400.07 K, 95070 kPa | 0.04385
499.24 K, 30120 kPa | 0.02951
499.24 K, 48890 kPa | 0.03275
499.24 K, 69570 kPa | 0.03658
499.24 K, 94610 kPa | 0.04084
499.43 K, 10560 kPa | 0.02699
